Columns and labels:
[1] = tested on: Neuraminidase (manufactured by Nacalai Tesque); settings: final concentration 1.0 mol/L, neuraminidase 0.0005 U/mL, 37° C. for 3 hours
Description: As a control group, purified water was added in the same amount as the neuraminidase. Glycine was added at a final concentration of 1.0 mol/L, or purified water as a control, and held at 37° C. for 3 hours.

[2] = tested on: neuraminidase; experiment: Capillary electrophoresis of Erythropoietin from culture fluid held with amino acids (bound sialic acids); format: biochemical; settings: 1 mol/L amino acid solution mixed in equivalent amount, 25° C. for 7 days, compared with purified water / initiation
Description: Purified water, 1 mol/L alanine solution, 1 mol/L arginine solution, or 1 mol/L glycine solution was mixed with the culture fluid containing Erythropoietin in an equivalent amount, respectively and then held at 25° C. for 7 days. Thereafter, Erythropoietin was purified using an anti-Erythropoietin antibody-immobilized affinity chromatography column, and the number of sialic acids binding to Erythropoietin was measured by capillary electrophoresis [Biol. Pharm. Bull. 33(9) 1596-1599 (2010)].

[3] = tested on: neuraminidase; experiment: Neuraminidase activity after addition of amino acids to Antithrombin eluate (enzyme assay); format: biochemical, CHO cell
Description: The Antithrombin concentration and the neuraminidase activity in the washing fraction before elution and in a particular range of eluate were measured by reversed-phase HPLC method [J. Chromatography B, 662, 209 (1994)] and enzyme assay [Glycobiology, 3, 455 (1993)], respectively.
Arginine hydrochloride or glycine of a final concentration of 0 to 500 mmol/L was added to the aqueous solution containing Antithrombin obtained in the elution process of Comparative Example 1. The neuraminidase activity in each solution was measured in the same manner as in Example 1.

[4] = tested on: protease; settings: glycine 0.5 mol/L or arginine 0.4 mol/L final, 25° C. for 6 days
[5] = Storage stability of purified Protein S by SDS-PAGE; format: physicochemical; settings: held at 37° C. for 3 days vs frozen at −20° C.
Description: The Protein S-Example 16 and the Protein S-Comparative Example 3 were held at 37° C. for 3 days, or they were also frozen at −20° C., respectively.

Row | Molecule | number of sialic acids binding to Erythropoietin after holding [2] | relative neuraminidase activity (activity at 0 mmol/L amino acid regarded as 1.0) ([3]; addition of 100 mmol/L) | conversion of Protein S into the cleaved form [4] | change on storage (cleaved form, SDS-PAGE) [5] | also measured
1 | NCC(=O)O [glycine] | the number of bound sialic acids was maintained | about 0.2 | conversion of Protein S into the cleaved form was inhibited |  | electrophoretic profile of Protein S (basic shift by loss of sialic acid) [1]: major bands were found in a more acidic region than the band of purified water-added one; relative neuraminidase activity (activity at 0 mmol/L amino acid regarded as 1.0) ([3]; addition of 300 mmol/L or more, below the detection limit): 0
2 | Protein S-Comparative Example 3: Protein S obtained by the method described in Comparative Example 3 (purified without using the mixed mode carrier) |  |  |  | the cleaved form was increased | 
3 | Protein S-Example 16: Protein S obtained by the method described in Example 16 (purified using the mixed mode carrier) |  |  |  | no change | 
4 | C[C@H](N)C(=O)O [alanine] | the number of bound sialic acids was maintained |  |  |  | 
5 | N=C(N)NCCC[C@H](N)C(=O)O [arginine] | the number of bound sialic acids was equivalent | about 0.2 | conversion of Protein S into the cleaved form was inhibited |  | relative neuraminidase activity (activity at 0 mmol/L amino acid regarded as 1.0) ([3]; addition of 200 mmol/L or more, below the detection limit): 0

Source: patent publication US9487566B2, “Method for purifying protein” (KYOWA HAKKO KIRIN CO., LTD, priority 2011, dated 2016)
